Values of other authors, collected in US5670364A, “A83543 compounds and process for production thereof” (priority 1995, dated 1997).

How the values were obtained:
[1] = tested on: norepinephrine N-methyltransferase; conditions: cited from earlier work
[2] = tested on: histamine N-methyltransferase; conditions: cited from earlier work
[3] = tested on: catechol O-methyltransferase; conditions: cited from earlier work
[4] = tested on: S-adenosyl-methionine-dependent O-methyltransferase; conditions: avermectin-producing strains; cited from earlier work
[5] = tested on: macrocin O-methyltransferase; conditions: cited from earlier work

Nc1ncnc2c1ncn2[C@@H]1O[C@H](C[C@@H](N)CC[C@H](N)C(=O)O)[C@@H](O)[C@H]1O [Sinefungin]
effective in inhibiting: inhibition of norepinephrine N-methyltransferase [1] | inhibition of histamine N-methyltransferase [2] | inhibition of catechol O-methyltransferase [3] | inhibition of O-methyltransferase in S. avermitilis [4] | inhibition of macrocin O-methyltransferase [5]
